For data set [1], the system named is Human dermal fibroblast cells (cell line CCD-25SK). The experiment in a line: Cell proliferation of skin fibroblasts (IncuCyte confluence AUC). The format is cell-based. The following applies: CCD-25Sk skin fibroblasts, 48 hours. The method, then:
CuCl2 and AgNO3 were also tested in parallel as positive controls. Percentage of cell confluence was determined experimentally using an IncuCyte Zoom and plotted overtime to determine the area under the curve (AUC) for each concentration tested. Cell proliferation was used as an indication for cell toxicity and was determined by normalising the AUC of cells exposed to the testing compounds against those of cells growing at normal rates (control).

Another data set relates to E. coli MC1061. The experiment in a line: Minimum bactericidal concentration (liquid incubation, then agar plates). It is filed as cell-based. The following applies: n = 1.
Another data set has as its system B. subtilis BR151. The description is as above. It is filed as cell-based. The following applies: n = 1.
A further data set has as its system S. aureus RN4220. The data set is described as above. It is filed as cell-based. The following applies: n = 1.
The next data set relates to P. aeruginosa. The data set is described as above. The format is cell-based. The following applies: n = 1.
The test system of another data set is V. fischeri. The data set is described as above. The format is cell-based. The following applies: n = 1.
Data set [2] in a line: Copper dispersibility in MOPS buffer pH 7.4. To be noted: MOPS buffer pH 7.4±0.2, copper added up to 500 ppm. It is filed as physicochemical. On the procedure: Stock copper materials were diluted in 50 mM 3-(N-morpholino)propanesulfonic acid (MOPS) buffer at pH 7.4±0.2. Final copper concentrations varied between 10 and 500 ppm. Microparticulate copper was removed by centrifugation at 16000 g for 5 minutes. Total copper and supernatant (i.e. disperse fraction) were analysed by Inductively Coupled Plasma-Optical Emission Spectroscopy (ICP-OES) as described in section 2.4.1.

Data set [3] can be described thus: Copper release from a gel matrix (HEC gel release assay). It is filed as physicochemical. To be noted: HEC gel with 250 ppm Cu, bicarbonate solution pH 7, over 24 hours.
Description: This assay consisted of exposing the copper-containing HEC—with specific surface area (7.1 cm^2)—to a bicarbonate buffered solution at pH 7.0±0.2, following copper concentration over time.
10 g of the gel was poured into a 50 ml falcon tube and let settle down overnight. 10 ml of a 50 mM NaHCO3 solution at pH 7±0.2 were carefully transferred on the surface of the gel. Samples were collected over 24 hours and copper concentration in the overhead solution was determined by ICP-OES (see section 2.4.1.).
The subject of data set [4] is Escherichia coli NCTC11100. Nature of the data set: Bacterial growth inhibition assay (turbidimetric, OD 595 nm, HMM medium). The format is cell-based. To be noted: E. coli, no copper.
Description: Antimicrobial activity was assessed through determination of bacterial growth inhibition in the presence of copper compounds. A turbidimetric assay was used to follow bacterial concentration over time as this is proportional to optical density (OD at 595 nm) in liquid medium, allowing an easy screening of bacterial growth over time. Escherichia coli NCTC11100 and Staphylococcus aureus RN4220 were the tested microorganisms in this assay. Stock bacterial colonies were kept in cultivated in agar plates and on the day before the experiment, one colony was transferred into 10 ml of HMM liquid medium and grown overnight at 30° C. under constant shaking (80 rpm) in an incubator. […] Copper stock solutions (refer to section 2.1) were sequentially diluted in HMM to achieve typical concentrations between 0.8 and 100 ppm Cu in a volume of 0.1 ml. Next, 0.1 ml of bacterial culture was added and incubated with copper at 30° C. under constant agitation (80 rpm). Final copper concentrations in the assay ranged between 0.4 and 50 ppm, and OD was measured every hour for a typical period of 7-8 hours to follow bacterial growth. OD background, i.e. OD absorbance not caused by bacteria, was determined to remove readout interference from copper and broth. Growth inhibition was calculated as follows: […]

For the compound `O=[N+]([O-])[O-].[Ag+]` [AgNO3], in data set [1], the “concentration from which cell proliferation decreased” value is not below 10 mg/L.

Take `O.O.[Cl][Cu][Cl]` [CuCl2, CuCl2.2H2O]: the MBC with E. coli MC1061 (4 h incubation) is 100 ppm Cu; in the data set on E. coli MC1061 (24 h incubation), 50 ppm Cu; against E. coli MC1061 (48 h incubation) it was 10 ppm Cu; in the data set on E. coli MC1061 (72 h incubation), 50 ppm Cu; in the data set with E. coli MC1061 (96 h incubation), 50 ppm Cu; in the data set on B. subtilis BR151 (4 h incubation) it was more than 100 ppm Cu. In addition, the MBC in the data set on B. subtilis BR151 (24 h incubation) is reported as more than 100 ppm Cu; in the data set with B. subtilis BR151 (48 h incubation), more than 100 ppm Cu; in the data set with B. subtilis BR151 (72 h incubation), more than 100 ppm Cu; in the data set with B. subtilis BR151 (96 h incubation), more than 100 ppm Cu; in the data set with S. aureus RN4220 (4 h incubation), 100 ppm Cu; in the data set with S. aureus RN4220 (24 h incubation), 50 ppm Cu. For the same compound, the MBC against S. aureus RN4220 (48 h incubation) was 50 ppm Cu; against S. aureus RN4220 (72 h incubation), 50 ppm Cu; against S. aureus RN4220 (96 h incubation) it was 50 ppm Cu; in the data set on P. aeruginosa (4 h incubation), 100 ppm Cu; with P. aeruginosa (24 h incubation) it was 100 ppm Cu; with P. aeruginosa (48 h incubation), 100 ppm Cu. Further, the MBC in the data set on P. aeruginosa (72 h incubation) was 100 ppm Cu; in the data set with P. aeruginosa (96 h incubation) it was 100 ppm Cu; in the data set on V. fischeri (4 h incubation), 100 ppm Cu; against V. fischeri (24 h incubation), 100 ppm Cu; against V. fischeri (48 h incubation), more than 100 ppm Cu; in the data set on V. fischeri (72 h incubation), more than 100 ppm Cu. The MBC in the data set on V. fischeri (96 h incubation) is reported as more than 100 ppm Cu. Besides, the “dispersible fraction (maximum)” value in data set [2] is given as “ca. 10 ppm of Cu”. The “Cu released from HEC matrix” value in data set [3] is recorded as not above 10 ppm. Also, the “concentration from which cell proliferation decreased” value in [1] is recorded as not below 50 mg/L.

Take `O.O.O=C([O-])CN(CCN(CC(=O)[O-])CC(=O)O)CC(=O)O.[Na+].[Na+]` [EDTA, disodium ethylenediaminetetraacetate (EDTA) di-hydrate]: the “antibacterial effect of the complexing agent alone (in words)” value in [4] is “had antibacterial effect”.

For the origin of these results see patent US20180147177A1, “Antibacterial Compositions Comprising Copper Oxo-Hydroxide Nanoparticles and Their Uses as Biocidal Agents” (Medical Research Council, priority 2015, published 2018).
